From US20260015352A1, “METHYLTRANSFERASE INHIBITOR AND USE THEREOF” (CYTOSINLAB THERAPEUTICS CO., LTD., priority 2022, published 2026) come the findings set out here.

The assay concerns G401 cells. Put plainly: G401 ELISA test. In kind it is cell-based. The following applies: Homo sapiens, G-401; G401 cells treated with compounds for 72 hours; ELISA detecting K27 and H3; read-out: G401_ELISA IC50. How it is done: • Plate Reader: Envision (Perkinelmner); plate shaker: IKA MTS 2/4; plate Washer: BioTek microplate wisher 405 select; Cell counter: Counterstar (Ruiyu-biotech); Cell culture incubator: MCO-15AC (ThermoFisher); Pipette: BioHit Multichannel. Pipette: 0.2-10 μL, 10-300 μL, 50-1200 μL; Centrifuge: Thermo Centrifuge ST 40R; Pure water system: Millipore Milli-Q Reference system; Refrigerator: Haier −80 degree, −20 degree, and 4-degree refrigerators; cell cryopreservation box: Mr. Frosty™ Gradient Cooling Box Cat #5100-0001
• McCoys 5A (Modified) culture medium (ATCC); FBS (Gibco); 0.25% Trypsin/EDTA (Gibco); PBS (Hyclone); Penicillin/Streptomycin(100×) (Gibco); DMSO (Sigma); 384 cell culture plate (Corning); 384 detection plate (Greiner); 96 well plate (compound dilution) (Haimen, Qunchao); T75 Cell Culture Bottle (Corning)
G401 cells were seeded in a 384-well cell culture plate and incubated overnight at 37° C. in a 5% CO2 cell culture incubator, after which the cells were treated with compounds of different concentrations for 72 hours. The 384-well cell culture plate was taken out and upside down in a centrifuge to centrifugeat 300 rpm for 1 minute. After centrifugation, the 384-well cell culture plate was washed twice with PBS, added with lysis solution and lysed for 60 minutes. Then neutralization buffer was added for mixing and incubation was continued for 30 minutes. 20 ul (for detecting K27) and 10 ul (for detecting H3) of cell lysate were extracted from the 384-well cell culture plate and transferred to a 384 ELISA detection plate and incubate overnight at 4° C. The next day, the 384 ELISA plate was taken out and washed 5 times with TBST in a microplate washer. Then, the plate was added with a blocking solution and sealed at room temperature for 1 hour. The blocking solution was discarded and the primary antibody was added and then the plate was incubated at room temperature for 1 hour. After incubation, the plate was washed with TBST 5 times in a microplate washer, then added with secondary antibody and incubated at room temperature for 1 hour. After incubation, the plate was washed with TBST 5 times in a microplate washer, and finally added with color developer for color development. The plate was read with Envision plate reader. The obtained data was converted into inhibition rate using the following calculation method: % Inhibition rate=100−100*(compound absorbance−positive control absorbance)/(negative control absorbance−positive control absorbance), and then the inhibition rate data was subjected to curve fitting using the “logarithmic (inhibitor) and reaction-variable slope (four parameters)” model in GraphPad Prism 5 software.
The inhibition rate of the compound was calculated as follows: […]
The compounds of the present invention were tested according to the above experimental method, and some results were shown in Table 3. The test results were classified by A, B, and C, wherein A represents IC50≤0.1 uM; B represents 0.1 uM<IC50≤1 uM; C represents IC50>1 uM
On the technique in general: ELISA stands for enzyme-linked immunosorbent assay.
What is called IC50 is the midpoint of a concentration-inhibition curve. Turning to `O=C(Cc1ccc(NCC23CCC(Nc4ccc5ccnc(Cl)c5n4)(CC2)CC3)nc1)NC1COC1` [PA228], the IC50 is 100 to 1000 nM.
Regarding `COc1nccc2ccc(Nc3ccc(C(CO)Nc4ncc(CC(=O)NC5COC5)cn4)cc3F)nc12` (stereo not shown) [PA236], the IC50 was 100 to 1000 nM.
With `CC(c1cnc(N[C@@H](C)C23CCC(Nc4ccc5ccnc(Cl)c5n4)(CC2)CC3)nc1)N1CCS(=O)(=O)CC1` (stereo partly shown) [PA184] the figure was at most 100 nM.
For the compound `COc1nccc2ccc(Nc3ccc(CNc4ncc(CNCc5cnco5)cn4)cc3F)nc12` [PA203], the IC50 was at most 100 nM.
Regarding `COc1nccc2ccc(Nc3ccc(CNc4ncc(CNCC5CCOC5)cn4)cc3F)nc12` (stereo not shown) [PA220], the IC50 fell in the range of 100 to 1000 nM.
Then `COc1nccc2ccc(Nc3ccc([C@H](C)Nc4ncc(CC5CCS(=O)(=O)CC5)cn4)cc3F)nc12` [PA195], with at most 100 nM; and `CC(C(=O)NCCC#N)c1cnc(N[C@@H](C)C23CCC(Nc4ccc5ccnc(Cl)c5n4)(CC2)CC3)nc1` (stereo partly shown) [PA191], with at most 100 nM.
Then `COc1nccc2ccc(Nc3ccc(CNc4ccc(CC(=O)NC5COC5)cc4)cc3)nc12` [PA081], with 100 to 1000 nM; and `COc1nccc2ccc(Nc3ccc(CNc4ncc(C(C)C(=O)NC5COC5)cn4)cc3)nc12` (racemic) [PA041, 2-[2-[[4-[(8-methoxy-1,7-naphthyridin-2-yl)amino]phenyl]methylamino]pyrimidin-5-yl]-N-(oxetan-3-yl) propanamide], with at most 100 nM; and `COCCNC(=O)Cc1cnc(NCc2ccc(Nc3ccc4ccnc(OC)c4n3)cc2)nc1` [PA152], with 100 to 1000 nM.
With `COc1nccc2ccc(Nc3ccc([C@H](C)Nc4c(F)cc(CNC5CS(=O)(=O)C5)cc4F)cc3F)nc12` [PA241] the figure was 100 to 1000 nM; with `COc1nccc2ccc(Nc3ccc([C@H](C)Nc4ncc(CCN(C)C5CC(F)(F)C5)cn4)cc3F)nc12` [PA235], 100 to 1000 nM; with `COc1nccc2ccc(Nc3ccc(C(C)Nc4ncc(CC(=O)NC5COC5)cn4)cc3F)nc12` (stereo not shown) [PA204], at most 100 nM.
Consider `COCCNCc1cnc(NCc2ccc(Nc3ccc4ccnc(OC)c4n3)c(F)c2)nc1` [PA247], for which the IC50 is above 1000 nM.
For the compound `O=C(Cc1cnc(NCC23CCC(Nc4ccc5ccnc(Cl)c5n4)(CC2)CC3)nc1)NC1COC1` [PA046, 2-[2-[[4-[(8-chloro-1,7-naphthyridin-2-yl)amino]-1-bicyclo[2.2.2]octyl]methylamino]pyrimidin-5-yl]-N-(oxetan-3-yl)acetamide], the IC50 was at most 100 nM.
With `COc1nccc2ccc(Nc3ccc([C@H](C)Nc4ncc(CCc5cc(C#N)n[nH]5)cn4)cc3F)nc12` [PA219] the figure was 100 to 1000 nM; with `C[C@H](C(=O)NC1COC1)c1cnc(NCc2ccc(Nc3ccc4ccnc(Cl)c4n3)cc2)nc1` [PA054], 100 to 1000 nM.
Then `COc1nccc2ccc(Nc3ccc(CNc4ncc(CC(=O)N5CCOCC5)cn4)cc3F)nc12` [PA226], with 100 to 1000 nM; and `COc1ccc2ccc(Nc3ccc(CNc4ncc(CC(=O)NC5COC5)cn4)cc3)nc2n1` [PA073], with above 1000 nM.
`CNC(=O)C(NC1CS(=O)(=O)C1)c1cnc(N[C@@H](C)C23CCC(Nc4ccc5ccnc(Cl)c5n4)(CC2)CC3)nc1` (stereo partly shown) [PA162]: the IC50 is at most 100 nM.
With `Cc1ccc2ccc(Nc3ccc([C@H](C)Nc4ncc(CN(CC(=O)O)C5CS(=O)(=O)C5)cn4)cc3F)nc2c1Cl` [PA268] the figure was at most 100 nM; with `C[C@H](Nc1ncc(CC(=O)NC2COC2)cn1)C12CCC(Nc3ccc4ccnc(Cl)c4n3)(CC1)CC2` [PA176], at most 100 nM.
For `COc1nccc2ccc(Nc3ccc(CNc4ncc(CC(=O)NC5COC5)cn4)cc3)nc12` [PA001], the IC50 is at most 100 nM.
As to `COc1nccc2ccc(Nc3ccc(CNc4ncc(CC(=O)N5CC6(COC6)C5)cn4)cc3F)nc12` [PA251], the IC50 is above 1000 nM.
Take `Cc1ccc2ccc(NC34CCC([C@H](C)Nc5ncc(CNC6CS(=O)(=O)C6)cn5)(CC3)CC4)nc2c1Cl` [PA179]: the IC50 is at most 100 nM.
Regarding `COc1nccc2ccc(Nc3ccc([C@H](C)Nc4ncc(CCc5cc(C(N)=O)n[nH]5)cn4)cc3F)nc12` [PA245], the IC50 is above 1000 nM.
`COc1nccc2ccc(Nc3ccc(CNc4ncc(CNC5COC5)cn4)cc3)nc12` [PA154]: the IC50 was in the range of 100 to 1000 nM.
For `COc1nccc2ccc(Nc3ccc(CNc4cnc(C(C)(C)C(=O)NC5COC5)cn4)cc3)nc12` [PA038], the IC50 was above 1000 nM.
Then `CC(Nc1ncc(CC(=O)N(CCC#N)C2COC2)cn1)C12CCC(Nc3ccc4ccnc(Cl)c4n3)(CC1)CC2` (stereo not shown) [PA171], with at most 100 nM; and `COc1nccc2ccc(Nc3ccc([C@H](C)Nc4ncc(CNCCC#N)cn4)cc3F)nc12` [PA181], with at most 100 nM; and `COc1nccc2ccc(Nc3ccc([C@H](C)Nc4ncc(CNC5CS(=O)(=O)C5)cn4)cc3F)nc12` [PA172], with at most 100 nM.
With `CC(C(=O)NC1COC1)c1cnc(N[C@@H](C)C23CCC(Nc4ccc5ccnc(Cl)c5n4)(CC2)CC3)nc1` (single isomer, unassigned) [PA166] the figure was at most 100 nM; with `C[C@@H](C(=O)NC1COC1)c1cnc(NCc2ccc(Nc3ccc4ccnc(Cl)c4n3)cc2)nc1` [PA055], above 1000 nM; with `COc1nccc2cnc(Nc3ccc(CNc4ncc(CC(=O)NC5COC5)cn4)cc3)nc12` [PA254], above 1000 nM.
With `COc1nccc2ccc(Nc3ccc(CNc4ncc([C@@H](C)C(=O)NC5COC5)cn4)cc3)nc12` (single isomer, unassigned) [PA043, 2-[2-[[4-[(8-methoxy-1,7-naphthyridin-2-yl)amino]phenyl]methylamino]pyrimidin-5-yl]-N-(oxetan-3-yl) propanamide] the figure was 100 to 1000 nM; with `COc1nccc2ccc(Nc3ccc([C@H](C)Nc4ncc(CC(=O)NCCC#N)cn4)cc3F)nc12` [PA200], at most 100 nM; with `COc1nccc2ccc(Nc3ccc([C@H](CO)Nc4ncc(CC(=O)NC5COC5)cn4)cc3F)nc12` [PA218], 100 to 1000 nM.
With `COc1nccc2ccc(Nc3ccc([C@H](C)Nc4ncc(CC(=O)N(CCC#N)CCC#N)cn4)cc3F)nc12` [PA192], the IC50 was at most 100 nM.
Then `COc1nccc2ccc(Nc3ccc(CNc4ncc(CC(=O)NC5COC5)cn4)cc3F)nc12` [PA153], with at most 100 nM; and `COc1nccc2ccc(Nc3ccc([C@H](C)Nc4ncc(CNC5CCS(=O)(=O)CC5)cn4)cc3F)nc12` [PA261], with at most 100 nM.
Then `COc1nccc2ccc(Nc3ccc([C@H](C)Nc4ncc(C(C)C(=O)NC5COC5)cn4)cc3F)nc12` (stereo partly shown) [PA190], with at most 100 nM; and `CC(C(=O)N(CCC#N)C1COC1)c1cnc(N[C@@H](C)C23CCC(Nc4ccc5ccnc(Cl)c5n4)(CC2)CC3)nc1` (stereo partly shown) [PA177], with at most 100 nM; and `COc1nccc2ccc(NC34CCC(CNc5ncc([C@@H](C)C(=O)NC6COC6)cn5)(CC3)CC4)nc12` [PA077], with at most 100 nM.
With `COc1nccc2ccc(NC34CCC(CNc5ncc(C(C)C(=O)NC6COC6)cn5)(CC3)CC4)nc12` (stereo not shown) [PA076] the figure was at most 100 nM; with `COc1nccc2ccc(Nc3ccc([C@H](C)Nc4ncc(N5CC(C#N)C5)cn4)cc3F)nc12` [PA206], at most 100 nM; with `O=C(Cc1cnc(NCc2ccc(Nc3ccc4ccnc(Cl)c4n3)cc2)nc1)NC1COC1` [PA010], 100 to 1000 nM.
Take `COc1nccc2ccc(Nc3ccc(CNc4ncc(CC(=O)NCCO)cn4)cc3)nc12` [PA151]: the IC50 is above 1000 nM.
As to `COc1nccc2ccc(Nc3ccc(CNc4ncc(CNCc5cnoc5)cn4)cc3F)nc12` [PA198], the IC50 was at most 100 nM.
Then `Cc1ccc2ccc(Nc3ccc([C@H](C)Nc4ncc(CNC5CS(=O)(=O)C5)cn4)cc3F)nc2c1Cl` [PA167, (S)-3-(2-(1-(4-(8-chloro-7-methylquinolin-2-amino)-3-fluorophenyl)ethylamino)pyrimidin-5-ylmethylamino)thietan-1,1-dione], with at most 100 nM; and `C[C@H](Nc1ncc(CC2CCS(=O)(=O)CC2)cn1)C12CCC(Nc3ccc4ccnc(Cl)c4n3)(CC1)CC2` [PA187], with at most 100 nM.
Then `COc1nccc2ccc(Nc3ccc(CNc4ncc(CC(=O)N5CCC(O)CC5)cn4)cc3F)nc12` [PA230], with 100 to 1000 nM; and `COc1nccc2ccc(Nc3ccc(CNc4ncc(CC(=O)N5CCC(C#N)CC5)cn4)cc3F)nc12` [PA224], with 100 to 1000 nM.
